Values quoted from earlier work as cited in patent US8945626B2, “Preparation of pharmaceutical compositions” (priority 2006, dated 2015).

solubility in cold water: very slightly soluble
SMILES: CC(=O)Nc1ccc(O)cc1 [Paracetamol, 4-Acetamidophenol]
